Drawing on ChEMBL document CHEMBL4376822, “Hot-Spots of Mcl-1 Protein” (J Med Chem, 2020), this text covers IC50 and Ki for 14 compounds.

pIC50, pKi: −log10 of the molar value.

Assay [1] concerns the target T1, Apoptosis regulator Bcl-2 (Homo sapiens, UniProt P10415). Kind of assay: Inhibition of human BCl2 expressed in Escherichia coli BL21 (DE3) pLysS cells by surface plasmon resonance assay. Background: In SPR one partner is held on a chip, and binding of the other changes the refractive index at the surface.
A short description of assay [2]: Inhibition of human GST-tagged BCL-XL deltaC25 mutant using biotinylated BIM 26-mer peptide as substrate incubated for 30 mins by AlphaScreen assay. For orientation: In Alpha technology, singlet oxygen from a donor bead excites a nearby acceptor bead.
The target in assay [3] is T2, Induced myeloid leukemia cell differentiation protein Mcl-1 (Homo sapiens, UniProt Q07820).
T2 sequence (Q07820 whole entry): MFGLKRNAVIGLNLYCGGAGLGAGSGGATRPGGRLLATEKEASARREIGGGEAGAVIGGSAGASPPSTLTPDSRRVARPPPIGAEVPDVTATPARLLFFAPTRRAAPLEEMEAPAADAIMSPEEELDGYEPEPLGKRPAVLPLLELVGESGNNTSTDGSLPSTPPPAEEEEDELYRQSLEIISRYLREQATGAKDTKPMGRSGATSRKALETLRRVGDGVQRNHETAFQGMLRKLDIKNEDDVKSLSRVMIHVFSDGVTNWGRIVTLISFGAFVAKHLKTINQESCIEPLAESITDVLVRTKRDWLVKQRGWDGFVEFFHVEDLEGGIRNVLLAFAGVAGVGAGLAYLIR
Assay [4] can be described thus: Inhibition of human GST-tagged BCL-XL deltaC24 mutant using BIMBH3 mutant peptide as substrate by SPR assay.
Assay [5] concerns the target T1, Apoptosis regulator Bcl-2. Nature of the assay: Displacement of fluorescein labelled Puma-BH3 peptide from human BCl2 expressed in Escherichia coli BL21 (DE3) pLysS cells incubated for 2 hrs by fluorescence polarization assay. For orientation: Fluorescence polarisation rises when a labelled molecule tumbles more slowly, as on binding a larger partner.
Assay [6] deals with T2, Induced myeloid leukemia cell differentiation protein Mcl-1. Kind of assay: Inhibition of TAMRA-labeled BIM BH3 peptide binding to human Mcl1 (171 to 327 residues) incubated for 120 mins by fluorescence polarization.
The target is the same in assay [7]. Kind of assay: Displacement of fluorescein labelled Puma-BH3 peptide from His-tagged-TEV fused human Mcl-1 incubated for 2 hrs by fluorescence polarization assay.
In assay [8] the target is T1, Apoptosis regulator Bcl-2. Nature of the assay: Inhibition of Bcl-2 (unknown origin) by fluorescence polarization assay.
Assay [9] concerns the target T1, Apoptosis regulator Bcl-2. Kind of assay: Inhibition of wild-type BCL-2 (unknown origin) expressed in Escherichia coli BL21 cells using biotinylated BIMBH3 or BAXBH3 peptide by surface plasmon resonance assay.

T1 sequence (P10415 whole entry): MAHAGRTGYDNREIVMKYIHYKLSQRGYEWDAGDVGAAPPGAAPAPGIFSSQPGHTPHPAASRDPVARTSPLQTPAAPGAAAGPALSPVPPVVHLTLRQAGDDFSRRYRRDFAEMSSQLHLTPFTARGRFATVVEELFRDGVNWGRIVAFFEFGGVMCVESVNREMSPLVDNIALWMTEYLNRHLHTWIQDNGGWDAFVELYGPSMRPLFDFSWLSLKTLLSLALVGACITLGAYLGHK

In assay [1], `CC[C@H](C)[C@H](NC(=O)[C@H](CCC(=O)O)NC(=O)[C@H](CCCNC(=N)N)NC(=O)[C@H](C)NC(=O)[C@H](Cc1c[nH]c2ccccc12)NC(=O)[C@H](CCC(N)=O)NC(=O)[C@H](CCC(=O)O)NC(=O)[C@@H](N)CCC(=O)O)C(=O)NCC(=O)N[C@@H](C)C(=O)N[C@@H](CCC(N)=O)C(=O)N[C@@H](CC(C)C)C(=O)N[C@@H](CCCNC(=N)N)C(=O)N[C@@H](CCCNC(=N)N)C(=O)N[C@@H](CCSC)C(=O)N[C@@H](C)C(=O)N[C@@H](CC(=O)O)C(=O)N[C@@H](CC(=O)O)C(=O)N[C@@H](CC(C)C)C(=O)N[C@@H](CC(N)=O)C(=O)N[C@@H](C)C(=O)N[C@@H](CCC(N)=O)C(=O)N[C@@H](Cc1ccc(O)cc1)C(=O)N[C@@H](CCC(=O)O)C(=O)N[C@@H](CCCNC(=N)N)C(=O)O` had a pIC50 of 8.48.
On to `O=C(O)c1cccc(-c2ccc3c(c2)/C(=N/Nc2nc4ccccc4s2)CCC3)n1`, for which, in [2], the pIC50 was […].
On to `O=C(O)c1nc(-c2ccc3c(c2)/C(=N/Nc2nc4ccccc4s2)CCC3)sc1CCCCc1ccccc1`, for which, in assay [2], the pIC50 is 7.62.
In turn, `Cc1ccccc1-c1cccc2c(CCCOc3cccc4ccccc34)c(C(=O)O)[nH]c12` showed a pIC50 in assay [3] of 5.96.
With `CN(C)CC[C@H](CSc1ccccc1)Nc1ccc(S(=O)(=O)NC(=O)c2ccc(N3CCN(Cc4ccccc4-c4ccccc4)CC3)cc2)cc1[N+](=O)[O-]`, the pIC50 in [4] is 7.96.
`CCCCN(CCCC)C(=O)c1cc(C)n(-c2ccccc2C(=O)N2Cc3ccccc3C[C@H]2CN)n1`: the pIC50 in assay [5] was 5.89.
Regarding `O=C1NS(=O)(=O)CCOCCCCCCN2C[C@@]3(CCCc4cc(Cl)ccc43)COc3ccc1cc32`, in [6], the pIC50 is 8.00.
As to `C[N+](C)(CC[C@H](CSc1ccccc1)Nc1ccc(S(=O)(=O)NC(=O)c2ccc(N3CCN(Cc4ccccc4-c4ccc(Cl)cc4)CC3)cc2)cc1[N+](=O)[O-])CC(=O)O`, the pIC50 in assay [5] is 6.30.
Still for that read-out and setting: for `COc1cc2c(cc1C(CN1CCCC1)c1ccc(-c3ccc(C(=O)NS(=O)(=O)c4ccc(C[C@H](CCN5CCOCC5)CSc5ccccc5)c(S(=O)(=O)C(F)(F)F)c4)cc3)cc1)OCO2` (some centres undefined) the value was 7.70.
In assay [7], `Cc1n[nH]c(C)c1-c1cccc2c(CCCOc3cccc4ccccc34)c(C(=O)O)[nH]c12` gave a pIC50 of 7.00.
In [7], `CCc1sc2ncnc(N[C@@H](CO)C(=O)O)c2c1-c1ccccc1` had a negative-log IC50 (pIC50) of 3.28.
The compound `O=C(NS(=O)(=O)c1ccc(NC2CCOCC2)c([N+](=O)[O-])c1)c1ccc(N2CCN(CC3=C(c4ccc(Cl)cc4)COCC3)CC2)cc1` gave a negative-log Ki (pKi) in [8] of 7.23.
In turn, `C/C(=N\Nc1nc2ccccc2s1)c1ccc(-c2ccc(S(=O)(=O)NC(=O)CCCCCc3ccccc3)cc2)o1` gave a pIC50 in [2] of 6.11.
`NC[C@@H]1Cc2ccccc2CN1C(=O)c1cc2c(cc1-c1cc(C(=O)N(c3ccccc3)c3ccc(O)cc3)c3n1CCCC3)OCO2` showed a pKi in assay [9] of 9.44.

The term pIC50 denotes the negative decadic logarithm of the IC50, by convention in mol/L. A lower pIC50 goes with a large IC50. By pKi is commonly meant the negative decadic logarithm of the Ki, by convention in mol/L. Read a high pKi as a low Ki.
